Test results: PubChem BioAssay AID624129 (Sanford-Burnham Center for Chemical Genomics, 2012)
pIC50: −log10 of the molar value. Activity calls are given as the source filed them. How the calls were made is not given here.

What was measured:
Assay in all cases: potency against CXCR6 with APJ panel – cell-based, beta-arrestin, DiscoveRx, uHTS hits, dose response (AID 624129)
[1] = target: Apelin receptor (Homo sapiens) (UniProt P35414); conditions: CXCR6 beta-arrestin (DiscoveRx) antagonist cell assay, APJ
[2] = target: Beta-galactosidase (Escherichia coli) (UniProt Q8VNN2); conditions: CXCR6 beta-arrestin (DiscoveRx) antagonist cell assay, b-galactosidase
[3] = target: C-C chemokine receptor type 6 (Homo sapiens) (UniProt P51684); conditions: CXCR6 beta-arrestin (DiscoveRx) antagonist cell assay
[4] = target: C-X-C chemokine receptor type 6 (Homo sapiens) (UniProt O00574); conditions: CXCR6 beta-arrestin (DiscoveRx) antagonist cell assay; for inhibition: CXCR6, run 1, dose range 2, at 80 µM (top of the series)
[5] = dose range 1, mean IC50 across replicates
[6] = CCR6, dose range 1, mean IC50 across replicates
[7] = CXCR6, dose range 1, mean IC50 across replicates

Chain of Beta-galactosidase (Escherichia coli) (Q8VNN2 whole entry, looked up): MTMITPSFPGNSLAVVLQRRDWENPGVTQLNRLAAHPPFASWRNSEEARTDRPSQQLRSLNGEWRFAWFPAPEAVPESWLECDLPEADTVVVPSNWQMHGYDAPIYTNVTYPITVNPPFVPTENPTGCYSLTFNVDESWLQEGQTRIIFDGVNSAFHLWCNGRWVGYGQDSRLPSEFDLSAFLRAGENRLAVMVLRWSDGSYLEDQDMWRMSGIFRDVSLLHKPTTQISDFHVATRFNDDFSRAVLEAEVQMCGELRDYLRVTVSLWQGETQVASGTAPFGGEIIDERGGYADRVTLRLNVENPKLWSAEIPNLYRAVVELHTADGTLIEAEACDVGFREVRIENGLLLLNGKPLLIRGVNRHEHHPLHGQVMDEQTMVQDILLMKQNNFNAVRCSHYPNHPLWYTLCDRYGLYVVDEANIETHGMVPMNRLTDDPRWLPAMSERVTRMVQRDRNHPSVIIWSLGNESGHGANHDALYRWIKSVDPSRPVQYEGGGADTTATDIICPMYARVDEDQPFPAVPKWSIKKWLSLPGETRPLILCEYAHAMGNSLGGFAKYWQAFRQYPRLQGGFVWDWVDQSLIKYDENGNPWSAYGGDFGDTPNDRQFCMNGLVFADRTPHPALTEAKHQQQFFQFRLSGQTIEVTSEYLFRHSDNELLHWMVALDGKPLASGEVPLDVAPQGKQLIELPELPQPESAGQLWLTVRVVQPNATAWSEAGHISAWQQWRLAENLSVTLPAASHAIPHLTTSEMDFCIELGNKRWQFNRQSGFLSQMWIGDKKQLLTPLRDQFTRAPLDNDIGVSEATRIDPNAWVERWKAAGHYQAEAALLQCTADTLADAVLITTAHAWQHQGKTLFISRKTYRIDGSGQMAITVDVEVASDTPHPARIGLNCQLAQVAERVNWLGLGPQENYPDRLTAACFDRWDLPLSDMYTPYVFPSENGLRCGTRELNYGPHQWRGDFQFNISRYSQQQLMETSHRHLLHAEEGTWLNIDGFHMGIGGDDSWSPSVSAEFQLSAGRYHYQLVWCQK
Chain of C-X-C chemokine receptor type 6 (Homo sapiens) (O00574 whole entry, looked up): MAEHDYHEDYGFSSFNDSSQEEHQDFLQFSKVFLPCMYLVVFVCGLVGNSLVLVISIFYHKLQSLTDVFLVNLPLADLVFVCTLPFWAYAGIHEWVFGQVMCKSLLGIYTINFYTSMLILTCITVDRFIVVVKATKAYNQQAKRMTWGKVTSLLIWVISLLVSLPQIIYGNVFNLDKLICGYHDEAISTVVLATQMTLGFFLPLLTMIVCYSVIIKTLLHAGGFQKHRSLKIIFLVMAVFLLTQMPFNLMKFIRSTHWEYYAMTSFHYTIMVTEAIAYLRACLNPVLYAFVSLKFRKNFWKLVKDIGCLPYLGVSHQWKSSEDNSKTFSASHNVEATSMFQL

Compound | pIC50 ([1]; dose range 1) | pIC50 [1, 5] | pIC50 ([1]; run 2, dose range 1) | pIC50 ([1]; run 3, dose range 1) | IC50 ([2]; dose range 1) | pIC50 [2, 5] | pIC50 ([3]; CCR6, dose range 1) | pIC50 [3, 6] | pIC50 ([3]; CCR6, run 2, dose range 1) | pIC50 ([4]; CXCR6, dose range 1) | pIC50 [4, 7] | pIC50 ([4]; CXCR6, run 1, dose range 2) | pIC50 ([4]; CXCR6, run 2, dose range 1) | pIC50 ([4]; CXCR6, run 2, dose range 2) | pIC50 ([2]; dose range 1) | IC50 ([4]; CXCR6, dose range 1) | inhibition [4] | IC50 ([1]; dose range 1)
O=C1C=CC2(C=C1)O[C@H](Cc1ccccc1)[C@@H](Cc1ccccc1)O2 | 5.10 | 5.08 | 5.05 | 5.08 | > 80 µM (inactive) | < 4.10 | 5.35 | 5.32 | 5.30 | 5.05 | 5.08 | 5.18 | 5.13 | 4.99 | – | – | – | –
C=C1C(=O)c2sccc2C(c2ccc(OC)c(OC)c2)C1COC(C)=O (stereo not given) | 5.14 | 5.17 | 5.22 | 5.17 | > 80 µM (inactive) | < 4.10 | 5.34 | 5.28 | 5.22 | 5.18 | 5.21 | 5.24 | 5.17 | 5.24 | – | – | – | –
O=C(Nc1ccccc1Cl)/C(Cl)=C(\Cl)S(=O)c1ccccc1 (stereo not given) | 4.90 | 4.93 | 4.92 | 4.98 | > 80 µM (inactive) | < 4.10 | 5.07 | 5.08 | 5.09 | 5.01 | 5.00 | 5.03 | 4.98 | 4.99 | – | – | – | –
CCS(=O)(=O)c1ncc(Cl)c(C(=O)Nc2ccc(S(=O)(=O)N3CCCC(C)C3)cc2)n1 (stereo not given) | 5.03 | 5.06 | 5.05 | 5.10 | > 80 µM (inactive) | < 4.10 | 5.16 | 5.15 | 5.13 | 5.02 | 5.04 | 5.12 | 4.99 | 5.05 | – | – | – | –
C/C(=N\NC(=O)Cc1ccc(Cl)cc1)c1ccccn1 | 5.47 | 4.85 | 5.31 | 4.47 | > 80 µM (inactive) | < 4.10 | 5.49 | 5.46 | 5.43 | 5.43 | 5.43 | 5.48 | 5.34 | 5.46 | – | – | – | –
O=[N+]([O-])c1c(Nc2ccc(O)cc2)cc(Cl)c2nonc12 | 5.20 | 5.06 | 5.36 | 4.82 | – | 4.46 | 5.79 | 5.76 | 5.73 | 5.75 | 5.57 | 5.52 | 5.47 | 5.58 | 4.46 | – | – | –
Nc1cc(Cl)c2nonc2c1[N+](=O)[O-] | 4.97 | 4.69 | 4.87 | 4.43 | > 80 µM (inactive) | < 4.10 | 5.26 | 5.14 | 5.04 | 4.94 | 5.08 | 5.15 | 5.14 | 5.13 | – | – | – | –
Cc1nc2c(-c3ccc(Cl)cc3)c(C)[nH]n2c(=O)c1Cc1ccccc1 | – | < 4.10 | < 4.10 | < 4.10 | > 80 µM (inactive) | < 4.10 | – | < 4.10 | < 4.10 | – | < 4.10 | – | < 4.10 | – | – | > 80 µM (inactive) | -28.7% | –
Cc1ccsc1/C=C/c1ccc2cccc(O)c2n1 | 5.17 | 5.11 | 5.01 | 5.17 | > 80 µM (inactive) | < 4.10 | 5.28 | 5.19 | 5.11 | 5.20 | 5.26 | 5.51 | 5.06 | 5.42 | – | – | – | –
FC(F)(F)c1cnc(NNC(=S)Nc2ccccc2Cl)c(Cl)c1 | – | < 4.10 | < 4.10 | < 4.10 | > 80 µM (inactive) | < 4.10 | – | < 4.10 | < 4.10 | – | < 4.10 | – | < 4.10 | – | – | > 80 µM (inactive) | 2.4% | –
CCS(=O)(=O)c1ncc(Cl)c(C(=O)Nc2ccc(S(=O)(=O)N3CCC(C)CC3)cc2)n1 | 5.11 | 5.15 | 5.19 | 5.14 | > 80 µM (inactive) | < 4.10 | 5.23 | 5.24 | 5.26 | 5.13 | 5.09 | 5.08 | 5.10 | 5.03 | – | – | – | –
Cc1ccc(C(=O)Sc2cccccc2=O)cc1 | 5.98 | 5.62 | 5.34 | 5.82 | > 80 µM (inactive) | < 4.10 | 5.93 | 5.81 | 5.72 | 5.96 | 5.84 | – | 5.75 | – | – | – | 42.3% | –
COc1cccc(-n2nc(C#N)c(Cl)cc2=O)c1 | 5.10 | 5.14 | 5.14 | 5.18 | > 80 µM (inactive) | < 4.10 | 5.20 | 5.02 | 4.89 | – | 4.90 | 5.03 | 4.86 | 4.92 | – | inactive | – | –
Cc1cccc(C(=O)Nc2ccc(C(=O)/C=C/c3cccnc3)cc2)c1 | 5.06 | 5.02 | 5.01 | 4.98 | > 80 µM (inactive) | < 4.10 | 5.27 | 5.24 | 5.21 | 4.86 | 5.06 | 5.16 | 5.15 | 5.13 | – | – | – | –
CCC(=O)OCCNc1cc(Sc2nc3ccccc3[nH]2)c2nonc2c1[N+](=O)[O-] | 5.02 | 5.11 | 5.18 | 5.14 | – | 4.57 | 5.33 | 5.33 | 5.34 | 5.34 | 5.25 | 5.23 | 5.17 | 5.27 | 4.57 | – | – | –
O=C(C#Cc1ccccc1)c1ccc([N+](=O)[O-])cc1 | 5.36 | 5.34 | 5.26 | 5.43 | > 80 µM (inactive) | < 4.10 | 5.84 | 5.76 | 5.70 | 5.57 | 5.58 | – | 5.59 | – | – | – | 131% | –
CCC1CCCCN1S(=O)(=O)c1ccc(NC(=O)c2nc(S(C)(=O)=O)ncc2Cl)cc1 (stereo not given) | 5.15 | 5.18 | 5.14 | 5.23 | > 80 µM (inactive) | < 4.10 | 5.28 | 5.26 | 5.23 | 5.13 | 5.05 | 4.98 | 5.14 | 4.96 | – | – | – | –
CCOc1ccc(NC(=O)CN(C)S(=O)(=O)c2cccs2)cc1 | – | < 4.10 | < 4.10 | < 4.10 | > 80 µM (inactive) | < 4.10 | – | < 4.10 | < 4.10 | – | < 4.10 | – | < 4.10 | – | – | > 80 µM (inactive) | -28% | –
C=C1CC(COc2cc(=O)oc3ccccc23)(c2ccccc2)OC1=O (stereo not given) | 4.96 | 5.00 | 5.14 | 4.95 | > 80 µM (inactive) | < 4.10 | 5.21 | 5.17 | 5.13 | 5.11 | 5.16 | 5.21 | 5.10 | 5.25 | – | – | – | –
CC(=O)OCCCNc1cc(Sc2nc3ccccc3s2)c2nonc2c1[N+](=O)[O-] | – | < 4.10 | < 4.10 | < 4.10 | > 80 µM (inactive) | < 4.10 | 5.20 | 4.52 | 4.27 | – | 5.06 | 5.09 | < 4.10 | 5.03 | – | – | – | > 80 µM (inactive)
O=C(CSc1nc(-c2ccco2)cc(C(F)(F)F)n1)NCCCn1ccnc1 | 4.68 | 4.67 | 4.64 | 4.68 | > 80 µM (inactive) | < 4.10 | 4.75 | 4.71 | 4.68 | – | 4.77 | – | 4.74 | – | – | inactive | 126% | –
COC(=O)c1ccc2c(c1)C(C)(C)C(/C=C/c1ccc(OC)c(OC)c1OC)=[N+]2C | 4.82 | 4.82 | 4.85 | 4.80 | > 80 µM (inactive) | < 4.10 | 5.12 | 5.03 | 4.96 | 4.94 | 5.04 | 5.13 | 4.98 | 5.14 | – | – | – | –
